The values that follow are results of earlier work, collected in patent US20260021069A1, “ADVANTAGEOUS FLUOROB[…] THE TREATMENT OF MENTAL DISORDERS OR ENHANCEMENT” (TACTOGEN INC, priority 2023, published 2026).

Data set [1] deals with DAT and SERT. The note with it: uptake inhibition IC50 based; literature value.
For data set [2] the following is noted: after 75 or 125 mg MDMA; standard deviation of 1.3 hours; Vizeli & Liechti 2017.
The subject of data set [3] is DAT and SERT. The note with it: release based; Rothman et al. 2012.
A further data set has as its system DAT and NET. To be noted: Rothman et al. 2001.

For `CNC(C)Cc1ccc2c(c1)OCO2` (stereo not drawn) [MDMA], the “DAT/SERT ratio (1/IC50 at DAT divided by 1/IC50 at SERT)” value with DAT and SERT [1] is listed as 0.08. Also, the “duration of acute therapeutic effects” value in data set [2] is 4.2 h. Turning to `CCNC(C)Cc1ccc2c(c1)OCO2` (stereo not drawn) [MDEA, 3,4-methylenedioxy-N-ethylamphetamine], the “DAT/SERT ratio (1/IC50 at DAT divided by 1/IC50 at SERT)” value with DAT and SERT [1] is 3.2. In addition, in the data set on DAT and SERT [3], the “DAT/SERT EC50 ratio” value was 0.76.

As to `C[C@H](N)Cc1ccccc1` [d-amphetamine], the “DAT/NET EC50 ratio” value in the data set with DAT and NET is reported as 0.9.

Take `CN[C@@H](C)Cc1ccccc1` [d-methamphetamine]: the “DAT/NET EC50 ratio” value with DAT and NET is given as 0.5.
